Paper PMC12610274, “Identification of Marrubiin as a Cathepsin C Inhibitor for Treating Rheumatoid Arthritis” (Molecules, 2025)

Columns and labels:
[1] = test system: AIA model; assay: Adjuvant-induced arthritis (AIA) model, disease severity; assay type: in vivo, Sprague-Dawley rats; conditions: rat AIA
Description: (§1) Thirty 4-week-old male Sprague-Dawley rats (weighing 120–130 g) were randomly divided into 6 groups (5 rats per group) after 1 week of adaptive feeding, namely the normal group, model group, low-dose experimental group (15 mg/kg), medium-dose experimental group (30 mg/kg), high-dose experimental group (60 mg/kg), and positive control group (30 mg/kg). Starting from Day 0 of the experiment, rats in the administration groups and model group were injected intradermally with 0.1 mL of CFA into the left hind paw to induce AIA, while rats in the normal group were injected intradermally with an equal volume (0.1 mL) of normal saline as a control. After 13 consecutive days of feeding, rats treated with CFA successfully developed typical AIA symptoms. […] During the experiment, the body weight, mental state, activity ability, hair color changes, and paw appearance changes of the rats were observed and recorded daily. In addition, on Day 0 of the experiment (baseline period), the basic paw volume of all rats was accurately measured using a plethysmometer, which served as a reference standard for subsequent evaluation of inflammation severity. From Day 13 to Day 28 of the experiment, the paw volume of the rats was measured repeatedly every 3 days. The degree of paw swelling was quantified by calculating the change in paw volume relative to the baseline. Meanwhile, the arthritis index score was calculated based on the range of paw redness and swelling, the severity of swelling, and the degree of limb movement limitation, so as to comprehensively evaluate the inflammatory state. On Day 28 of the experiment (the end of the administration cycle), blood samples were collected via abdominal aortic puncture. The blood samples were centrifuged at 3000 rpm for 20 min, and the upper serum was collected and stored at −20 °C for subsequent detection. The rats were then sacrificed, and their ankle joint tissues were harvested for subsequent pathological section observation and analysis. The cytokine levels in serum were measured. The activity detection of CTSC and NSPs was carried out according to the above methods.

[2] = test system: NE; assay: AIA model, serum NE activity; assay type: in vivo, Sprague-Dawley rats; conditions: rat AIA, high dose 60 mg/kg gavage, 15 days
Description: as §1, with “Meanwhile, the arthritis index score was calculated based on the range of paw redness and swelling, the severity of swelling, and the degree of limb movement limitation, so as to comprehensively evaluate the inflammatory state. On Day 28 of the experiment (the end of the administration cycle), blood samples were collected via abdominal aortic puncture. The blood samples were centrifuged at 3000 rpm for 20 min, and the upper serum was collected and stored at −20 °C for subsequent detection. The rats were then sacrificed, and their ankle joint tissues were harvested for subsequent pathological section observation and analysis.” left out, “The activity detection of CTSC and NSPs was carried out according to the above methods.” left out

[3] = molecular target: T1, CTSC (Rattus norvegicus, UniProt P80067); assay: AIA model, serum CTSC activity; assay type: in vivo, Sprague-Dawley rats; conditions: high dose 60 mg/kg gavage, 15 days
T1 construct: from tissue; host or cells: serum of Sprague-Dawley rats (AIA model)
T1 sequence (P80067 25-462): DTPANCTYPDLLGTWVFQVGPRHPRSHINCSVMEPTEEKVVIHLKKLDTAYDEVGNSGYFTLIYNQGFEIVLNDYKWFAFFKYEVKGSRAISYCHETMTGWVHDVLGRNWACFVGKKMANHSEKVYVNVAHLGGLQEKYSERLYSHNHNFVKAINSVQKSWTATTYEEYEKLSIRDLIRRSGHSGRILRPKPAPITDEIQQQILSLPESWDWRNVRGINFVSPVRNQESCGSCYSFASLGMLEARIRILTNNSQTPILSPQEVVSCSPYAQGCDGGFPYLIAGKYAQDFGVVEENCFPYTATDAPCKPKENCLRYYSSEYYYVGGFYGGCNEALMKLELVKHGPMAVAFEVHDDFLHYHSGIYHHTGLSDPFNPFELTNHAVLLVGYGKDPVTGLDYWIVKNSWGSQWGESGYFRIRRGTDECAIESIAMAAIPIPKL
Description: as §1, with “Meanwhile, the arthritis index score was calculated based on the range of paw redness and swelling, the severity of swelling, and the degree of limb movement limitation, so as to comprehensively evaluate the inflammatory state. On Day 28 of the experiment (the end of the administration cycle), blood samples were collected via abdominal aortic puncture. The blood samples were centrifuged at 3000 rpm for 20 min, and the upper serum was collected and stored at −20 °C for subsequent detection. The rats were then sacrificed, and their ankle joint tissues were harvested for subsequent pathological section observation and analysis.” left out, “The activity detection of CTSC and NSPs was carried out according to the above methods.” left out

[4] = molecular target: Dipeptidyl Peptidase 8 (Homo sapiens, UniProt Q6V1X1); assay: Recombinant dipeptidyl peptidases isolated enzyme assay, DPP8; assay type: biochemical; conditions: read-out: Dipeptidyl Peptidase 8 Enz (IC50: μM)
Dipeptidyl Peptidase 8, sequence (Q6V1X1 whole entry, species assumed): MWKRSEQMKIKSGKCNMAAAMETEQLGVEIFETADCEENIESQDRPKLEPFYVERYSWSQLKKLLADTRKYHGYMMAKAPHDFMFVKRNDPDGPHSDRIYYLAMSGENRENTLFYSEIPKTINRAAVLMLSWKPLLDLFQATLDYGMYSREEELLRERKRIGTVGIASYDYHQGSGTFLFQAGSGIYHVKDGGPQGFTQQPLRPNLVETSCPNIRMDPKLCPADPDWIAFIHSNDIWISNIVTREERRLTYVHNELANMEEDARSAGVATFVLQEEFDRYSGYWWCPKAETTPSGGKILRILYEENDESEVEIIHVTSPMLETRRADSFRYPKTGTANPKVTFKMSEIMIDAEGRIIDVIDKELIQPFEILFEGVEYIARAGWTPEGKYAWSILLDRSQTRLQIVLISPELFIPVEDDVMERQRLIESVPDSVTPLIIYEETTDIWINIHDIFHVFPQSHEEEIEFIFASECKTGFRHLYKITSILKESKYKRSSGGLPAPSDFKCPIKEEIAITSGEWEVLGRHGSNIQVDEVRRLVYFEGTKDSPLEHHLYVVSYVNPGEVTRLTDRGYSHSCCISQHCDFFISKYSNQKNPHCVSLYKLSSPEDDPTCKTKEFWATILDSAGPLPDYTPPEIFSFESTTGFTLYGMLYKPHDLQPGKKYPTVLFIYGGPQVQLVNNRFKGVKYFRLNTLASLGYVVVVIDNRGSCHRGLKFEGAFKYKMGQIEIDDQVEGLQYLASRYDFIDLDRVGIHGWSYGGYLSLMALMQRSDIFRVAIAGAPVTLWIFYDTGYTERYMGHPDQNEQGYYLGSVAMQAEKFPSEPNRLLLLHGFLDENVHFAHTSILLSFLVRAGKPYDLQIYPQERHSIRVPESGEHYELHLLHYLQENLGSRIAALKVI
From the text: Table 3 Inhibitory effects of marrubiin on dipeptidyl peptidase. | column: Dipeptidyl Peptidase 8 Enz (IC50: μM)

[5] = test system: NSPs; assay: Stability (protein level) of NSPs in U937 cells, Western blot, NSPs together; assay type: cell-based, human; conditions: U937, 10 μM, 24 h
Description: (§2) The Western blot experiments in this study were performed as described below. Cells in the logarithmic growth phase were collected in appropriate numbers according to different experimental purposes. After being thoroughly washed with phosphate-buffered saline and centrifuged, the cell pellets were resuspended in phosphate-buffered saline to obtain single-cell suspensions. Cells were fully lysed using RIPA buffer (Beyotime, P0013B) supplemented with EDTA-free protease and phosphatase inhibitor (Abcam, ab201120). Total cellular protein solutions were obtained after centrifugation to remove cell debris. The isolated proteins were quantified using the BeyoBCA protein assay kit (Beyotime, P0399M) following the operational protocol. The quantified protein samples were thoroughly mixed with protein loading buffer, boiled on a dry bath for 5 min, and then cooled to room temperature for Western blot analysis. […] Finally, enhanced chemiluminescent horseradish peroxidase substrate (Tanon Science & Technology Co., Ltd., Shanghai, China, 180-506) was used to visualize protein bands on a ChemiDoc XRS system (Bio-Rad Laboratories, Inc., Hercules, CA, USA), and the protein bands were quantified using Image Lab analysis software (Version 6.1) (Bio-Rad). […]

[6] = Safety evaluation in vivo (body weight, toxic reactions, H&E staining); conditions: mice, high-dose group (30 mg/kg)
Description: A total of 25 C57BL/6 mice (6–8 weeks old, weighing approximately 20 g, with equal numbers of males and females) were randomly divided into five groups. Mice in the compound-treated groups were orally administered the compound once daily at doses of 0.3, 3, and 30 mg/kg for 7 consecutive days. […] Mice in the normal group were given an equal volume of normal saline at the same time points. The body weight, death rate, and behavior were observed and recorded daily for one week. After 7 days, bone marrow and blood samples were collected from the mice and lysed using 8% Triton X-100 buffer. The lysates were stored at −20 °C until testing. The activity assays for CTSC and NSPs were performed as described above. The mice were anesthetized and the tissues were taken for H&E staining.

[7] = test system: PR3; assay: AIA model, serum PR3 activity; assay type: in vivo, Sprague-Dawley rats; conditions: rat AIA, high dose 60 mg/kg gavage, 15 days
Description: as §1, with “Meanwhile, the arthritis index score was calculated based on the range of paw redness and swelling, the severity of swelling, and the degree of limb movement limitation, so as to comprehensively evaluate the inflammatory state. On Day 28 of the experiment (the end of the administration cycle), blood samples were collected via abdominal aortic puncture. The blood samples were centrifuged at 3000 rpm for 20 min, and the upper serum was collected and stored at −20 °C for subsequent detection. The rats were then sacrificed, and their ankle joint tissues were harvested for subsequent pathological section observation and analysis.” left out, “The activity detection of CTSC and NSPs was carried out according to the above methods.” left out

[8] = molecular target: Dipeptidyl Peptidase 9 (Homo sapiens, UniProt Q86TI2); assay: Recombinant dipeptidyl peptidases isolated enzyme assay, DPP9; assay type: biochemical; conditions: read-out: Dipeptidyl Peptidase 9 Enz (IC50: μM)
Dipeptidyl Peptidase 9, sequence (Q86TI2 whole entry, species assumed): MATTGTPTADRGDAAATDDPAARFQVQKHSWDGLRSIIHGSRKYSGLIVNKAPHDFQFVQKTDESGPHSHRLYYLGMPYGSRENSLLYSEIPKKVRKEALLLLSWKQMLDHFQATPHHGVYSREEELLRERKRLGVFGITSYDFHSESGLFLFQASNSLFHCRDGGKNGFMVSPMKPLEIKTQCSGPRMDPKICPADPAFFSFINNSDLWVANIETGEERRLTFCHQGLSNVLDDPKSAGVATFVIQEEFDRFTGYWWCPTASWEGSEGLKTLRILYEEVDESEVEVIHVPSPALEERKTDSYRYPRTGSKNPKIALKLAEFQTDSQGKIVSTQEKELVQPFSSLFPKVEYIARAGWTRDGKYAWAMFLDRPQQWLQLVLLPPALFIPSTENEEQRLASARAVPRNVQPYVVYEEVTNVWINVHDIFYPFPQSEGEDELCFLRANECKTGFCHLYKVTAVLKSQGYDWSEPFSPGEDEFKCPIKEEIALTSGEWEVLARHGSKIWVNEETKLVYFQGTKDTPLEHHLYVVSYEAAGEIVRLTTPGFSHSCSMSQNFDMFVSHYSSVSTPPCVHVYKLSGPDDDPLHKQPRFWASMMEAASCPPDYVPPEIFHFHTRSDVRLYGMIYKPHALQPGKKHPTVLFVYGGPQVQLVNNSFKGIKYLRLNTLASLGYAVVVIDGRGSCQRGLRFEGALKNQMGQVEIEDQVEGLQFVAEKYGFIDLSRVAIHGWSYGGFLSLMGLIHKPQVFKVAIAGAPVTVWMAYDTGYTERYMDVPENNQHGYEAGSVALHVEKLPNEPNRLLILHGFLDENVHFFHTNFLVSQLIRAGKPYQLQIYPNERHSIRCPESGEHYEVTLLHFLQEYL
From the text: Table 3 Inhibitory effects of marrubiin on dipeptidyl peptidase. | column: Dipeptidyl Peptidase 9 Enz (IC50: μM)

[9] = test system: PR3; assay: Stability (protein level) of NSPs in U937 cells, Western blot, PR3; assay type: cell-based, human; conditions: U937, 10 μM
Description: as §2

SMILES: C[C@@H]1C[C@H]2OC(=O)[C@@]3(C)CCC[C@@](C)([C@@H]23)[C@@]1(O)CCc1ccoc1 [Marrubiin, marrubiin]
- clinical score vs AIA model group ([1]; 60 mg/kg gavage, from day 16 onwards): significantly lower than those of AIA model group
- body weight recovery ([1]; 60 mg/kg, from day 16 onwards): most significant weight recovery effects
- histopathology of ankle joints (H&E, Safranin O/Fast Green) ([1]; different doses (15, 30, 60 mg/kg)): reduced the histopathological statement
- volume and thickness of inflamed paws ([1]; different doses (15, 30, 60 mg/kg), days 16 to 28): continuous reduction in volume and a gradual decrease in thickness
- serum NE activity, % of control group [2]: ~47%
- serum CTSC activity, % of control group [3]: approximately 58%
- IC50 [4]: > 10 µM
- content of NSPs, % of the original level [5]: 75.4–87.8%
- toxic reactions and body weight ([6]; 7-day continuous administration): no toxic reactions or significant weight loss were observed
- H&E staining of tissues and organs (heart, liver, spleen, lung, kidney) ([6]; 7 days): No pathological changes
- serum PR3 activity, % of control group [7]: ~50%
- IC50 [8]: > 10 µM
- PR3 protein level, % of original level ([9]; 96 h): 28.2%
- PR3 protein level, % of original level ([9]; 5 days): 15.8%
